# Measurements from publication PMC3060409 (Biochemical and biophysical research communications, 2011).
# Ends that are not written are not given here.
# How the values were obtained:
# ferroportin mRNA [1] = assay: Ferroportin mRNA levels, semi-quantitative RT-PCR; type: cell-based; conditions: mouse primary RPE; hepcidin 2 μg/ml, 8 h; HPRT1 internal control
# [2] = system: SOPT1 ([3H]-deltorphin II uptake in RPE cells); assay: Inhibition of [3H]-deltorphin II uptake in human RPE cells; type: cell-based; conditions: [3H]-deltorphin II 20 nM, 30 min
# ferroportin mRNA [3] = assay: Ferroportin mRNA levels, real-time RT-PCR; type: cell-based; conditions: mouse primary RPE; hepcidin 2 μg/ml, 8 h; P < 0.001 (Fig. 4)
# [4] = system: SOPT1 ([3H]-deltorphin II uptake in mouse RPE cells); assay: Inhibition/stimulation of [3H]-deltorphin II uptake in mouse primary RPE cells; type: cell-based, mouse (C57/Bl6); conditions: [3H]-deltorphin II 20 nM, 30 min
# [5] = system: SOPT2 ([3H]-DADLE uptake in mouse RPE cells); assay: Inhibition of [3H]-DADLE uptake in mouse primary RPE cells; type: cell-based, mouse (C57/Bl6); conditions: hepcidin 25 μM, [3H]-DADLE 10 nM, 30 min
# [6] = system: SOPT2 ([3H]-DADLE uptake in RPE cells); assay: Inhibition of [3H]-DADLE uptake in human RPE cells; type: cell-based
# transferrin receptor 1 = assay: Transferrin receptor 1 expression; type: cell-based; conditions: mouse RPE; hepcidin treatment; data not shown
# hemojuvelin = assay: Hemojuvelin expression; type: cell-based; conditions: mouse RPE; hepcidin treatment; data not shown
# transferrin = assay: Transferrin expression; type: cell-based; conditions: mouse RPE; hepcidin treatment; data not shown
# HFE mRNA = HFE mRNA levels, RT-PCR; type: cell-based; conditions: mouse primary RPE; hepcidin 2 μg/ml, 8 h
# ferroportin = conditions: target cells; ref [14]; cited from earlier work
# SOPT1 = conditions: ref [2]; cited from earlier work
# [7] = system: ARPE-19 cells (SOPT1 and SOPT2); type: cell-based, human; conditions: naloxone 1 mM, 15 min preincubation, FITC-hepcidin 2.5 μM
# SOPT1 and SOPT2 = conditions: ref [5]; cited from earlier work
molecule,measurement,setting,value
DTHFPICIFCCGCCHRSKCGYCCKT (cysteine pairing not given here) [hepcidin],ferroportin mRNA levels (RT-PCR),ferroportin mRNA [1],significant reduction in ferroportin mRNA levels
same,dose dependence of deltorphin II uptake inhibition,"[2]; RPE cells, Fig. 1B",dose-dependent
same,IC50,"[2]; read-out: IC50, inhibition of deltorphin II uptake, ARPE-19 cells, 25 mM HEPES/Tris pH 7.5, 140 mM NaCl, means ± S.E., three independent experiments in duplicate",420 ± 120 nM
same,ferroportin mRNA levels (real-time RT-PCR),ferroportin mRNA [3],decrease in ferroportin mRNA levels was confirmed
same,inhibition of deltorphin II uptake,"[4]; hepcidin 25 μM, mouse primary RPE",almost completely inhibited
same,inhibition of DADLE uptake,[5],almost completely inhibited
same,dose dependence of DADLE uptake inhibition,"[6]; [3H]-DADLE 10 nM, 30 min, Fig. 1C",dose-dependent
same,transferrin receptor 1 expression,transferrin receptor 1,none of these genes was altered
same,hemojuvelin expression,hemojuvelin,none of these genes was altered
same,transferrin expression,transferrin,none of these genes was altered
same,HFE mRNA levels,HFE mRNA,no effect on HFE mRNA levels
same,binding to ferroportin with internalization and degradation,ferroportin,binds to ferroportin on target cells and that this complex gets internalized with subsequent degradation
Gly-Gly-Ile,effect on deltorphin II uptake (stimulation),"[4]; mouse RPE cells, Gly-Gly-Ile 1 mM",stimulated deltorphin II uptake
same,stimulation of SOPT1,SOPT1,potent stimulator of SOPT1
"[tyrosyl-3,5–^3H(N)]DADLE [[^3H]-DADLE]",non-mediated diffusional component of uptake,"[6]; [3H]-DADLE uptake in presence of 1 mM unlabeled DADLE, pH 7.5",< 5 % of measured total uptake
C=CCN1CC[C@]23c4c5ccc(O)c4O[C@H]2C(=O)CC[C@@]3(O)[C@H]1C5 [naloxone],effect on FITC-hepcidin uptake (flow cytometry),[7],did not alter the uptake
"HIV-Tat47–57: exogenous oligopeptide recognized by SOPT1 and SOPT2 (YGRKKRRQRRR; Tat; UniProt P04608 47-57, looked up, fragment)",recognition by SOPT1 and SOPT2,SOPT1 and SOPT2,recognize
